Test results: patent US8710098B2, “Group of amino substituted benzoyl derivatives and their preparation and their use” (priority 2008, dated 2014)

Columns and labels:
HIV-1 = HIV-1 P24 antigen in supernatant 4 days (96 h) after addition of compounds
Method: The inhibitory activities of the compounds proposed in this invention to HIV-1 were measured using HIV-1 P24 antigen kit.
DMSO solutions of samples of test compounds listed in Table 2 diluted to 8 different concentrations and the solution of the positive control AZT (azidothymidine, 0.15 ng/ml) are respectively added into 96 well plates, duplications are set for each of the dilutions, and negative control samples are also made. Aliquots of 100 μl 2×10^5 cell/ml suspension are inoculated onto the 96 well cell culture plates and cultured in an incubator under a condition of 37° C., 5% CO2 and saturated humidity. The pathologic changes of the cells are observed every day. The HIV-1 P24 antigen contents in supernatant cells are measured in 4 days (96 h) after addition of the test compounds according to the operation procedure provided by the HIV-1 P24 antigen kit.

[1] = target: T1, hA3G degradation mediated by HIV-1 Vif (UniProt P69723+Q9HC16); assay: Screening experiment for up-regulation activity to hA3G (YFP-fused hA3G co-expressed with HIV-1 Vif, fluorescence); type: cell-based, human; conditions: YFP fluorescence of cells co-expressing Vif and hA3G-YFP; excitation 485 nm, detection 520 nm; averages of duplicates
T1 construct: expressed in transfected cells
Source text: Based on the advances making research on the hA3G degradation mediated by HIV-1 Vif, this invention establishes a high throughput anti-HIV-1 drug screening model using hA3G degradation mediated by HIV-1 Vif as target, to screen small molecule active compounds capable of inhibiting this degradation process. The function principle of this model is that HIV-1 Vif protein and hA3G fused yellow fluorescent protein (YFP) co-expressed in the cells, then the intracellular fluorescence intensity (at […]) decreases owing to the degradation of hA3G caused by Vif and subsequent degradation of YEP fused on hA3G. By means of measuring the change of fluorescent intensity, the influence of the screened compounds on the degradation of hA3G caused by Vif can quantitatively be analyzed. Simultaneously, to differentiate the non-specific inhibitory effect of diverse ubiquitin degradation route in the samples, this invention establishes a recheck model based on the detection of P53 degradation caused by the product of adenovirus early gene, to assure that the positive samples screened out by the proposed model can specifically block the degradation of hA3G caused by Vif.
Screening Experiment for Up-Regulation Activity to hA3G
The cells are picked up and cultured a culture bottle. When the cells grow full of the culture bottle, old culture medium is discarded and the cells are digested with digestion medium. When the cells turn round, the digestion medium is discarded and the culture medium is added in at once, the bottom of the bottle is gently blown with a pipette to make the cells disengage the bottle bottom and disperse into single cell suspension. After counting the cells using blood cell counting chamber, the cell suspension is inoculated into a culture dish for transfection. The medium containing the plasmid to be transfected and the transfection reagents is gently mixed up and incubated at room temperature. The medium is then added into the supernatant of the cell culture and cultured for a certain period of time. The old culture medium is then sucked out, the cells are digested with digestive medium, the digestive medium is subsequently discarded and culture medium is immediately added. The medium is gently blown to disperse the cells into single cell suspension. After counting the cells using blood cell counting chamber, the cells are ready for inoculation.
Samples of compounds[…]Pure tested compounds are dissolved in DMSO, the solution is diluted with equal proportional distilled water. The diluent is used to test the cell systems.
Sample solution of different concentration is added into the supernatant of a cell culture. After the cells are continuously cultured, old culture medium is sucked out and the cells are blown with PBS buffer until the cells completely disengage from the culture bottle.
The fluorescence intensity values of the cell suspension with test compound samples, positive control samples and negative control samples are respectively measured with fluorometer, the excitation wavelength is 485 nm and the detection wavelength 520 nm. Averages of duplicated measurements are taken as the results.
The measured fluorescence intensity values of the negative control samples (blink sample) subtracted from those of test compound samples, the results are taken as YFP fluorescence of different groups. Relative fluorescence intensity=fluorescence intensity of a test sample group/fluorescence intensity of the positive control group×100% Inhibition rate of degradation=(test sample group−negative control group)/(positive control group−negative control group)×100%

T1 sequence (P69723 whole entry, the tested form may be a part): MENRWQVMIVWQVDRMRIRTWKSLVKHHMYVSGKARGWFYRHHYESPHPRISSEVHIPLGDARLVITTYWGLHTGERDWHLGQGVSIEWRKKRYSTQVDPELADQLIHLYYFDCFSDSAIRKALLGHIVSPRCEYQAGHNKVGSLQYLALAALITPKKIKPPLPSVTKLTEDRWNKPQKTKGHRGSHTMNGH
T1 sequence (Q9HC16 whole entry, the tested form may be a part): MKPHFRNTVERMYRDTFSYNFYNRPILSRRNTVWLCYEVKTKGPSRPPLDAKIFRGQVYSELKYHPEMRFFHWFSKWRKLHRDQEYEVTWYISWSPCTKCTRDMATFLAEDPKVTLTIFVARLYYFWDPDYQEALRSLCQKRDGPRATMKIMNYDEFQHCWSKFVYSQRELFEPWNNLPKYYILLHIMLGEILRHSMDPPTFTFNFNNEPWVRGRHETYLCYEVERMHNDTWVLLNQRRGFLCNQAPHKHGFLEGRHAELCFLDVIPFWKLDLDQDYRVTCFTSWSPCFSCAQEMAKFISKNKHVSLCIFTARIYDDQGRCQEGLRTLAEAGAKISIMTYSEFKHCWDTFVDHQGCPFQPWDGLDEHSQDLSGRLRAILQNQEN

3-amino-4-methoxybenzanilide [Compound 2621]
inhibitory activity to HIV-1, IC50 (HIV-1): <0.0137 µg/mL
hA3G up-regulation activity (%) [1]: 36.2%
